Experimental data from patent US20240327382A1 (ALMAC DISCOVERY LIMITED, priority 2021, published 2024).

Target: T1, Full-length USP19 (Homo sapiens, UniProt O94966)
T1 construct: Full-length USP19 was purchased from Boston Biochem (E-576); purchased Boston Biochem E-576
T1 sequence (O94966 1-1318): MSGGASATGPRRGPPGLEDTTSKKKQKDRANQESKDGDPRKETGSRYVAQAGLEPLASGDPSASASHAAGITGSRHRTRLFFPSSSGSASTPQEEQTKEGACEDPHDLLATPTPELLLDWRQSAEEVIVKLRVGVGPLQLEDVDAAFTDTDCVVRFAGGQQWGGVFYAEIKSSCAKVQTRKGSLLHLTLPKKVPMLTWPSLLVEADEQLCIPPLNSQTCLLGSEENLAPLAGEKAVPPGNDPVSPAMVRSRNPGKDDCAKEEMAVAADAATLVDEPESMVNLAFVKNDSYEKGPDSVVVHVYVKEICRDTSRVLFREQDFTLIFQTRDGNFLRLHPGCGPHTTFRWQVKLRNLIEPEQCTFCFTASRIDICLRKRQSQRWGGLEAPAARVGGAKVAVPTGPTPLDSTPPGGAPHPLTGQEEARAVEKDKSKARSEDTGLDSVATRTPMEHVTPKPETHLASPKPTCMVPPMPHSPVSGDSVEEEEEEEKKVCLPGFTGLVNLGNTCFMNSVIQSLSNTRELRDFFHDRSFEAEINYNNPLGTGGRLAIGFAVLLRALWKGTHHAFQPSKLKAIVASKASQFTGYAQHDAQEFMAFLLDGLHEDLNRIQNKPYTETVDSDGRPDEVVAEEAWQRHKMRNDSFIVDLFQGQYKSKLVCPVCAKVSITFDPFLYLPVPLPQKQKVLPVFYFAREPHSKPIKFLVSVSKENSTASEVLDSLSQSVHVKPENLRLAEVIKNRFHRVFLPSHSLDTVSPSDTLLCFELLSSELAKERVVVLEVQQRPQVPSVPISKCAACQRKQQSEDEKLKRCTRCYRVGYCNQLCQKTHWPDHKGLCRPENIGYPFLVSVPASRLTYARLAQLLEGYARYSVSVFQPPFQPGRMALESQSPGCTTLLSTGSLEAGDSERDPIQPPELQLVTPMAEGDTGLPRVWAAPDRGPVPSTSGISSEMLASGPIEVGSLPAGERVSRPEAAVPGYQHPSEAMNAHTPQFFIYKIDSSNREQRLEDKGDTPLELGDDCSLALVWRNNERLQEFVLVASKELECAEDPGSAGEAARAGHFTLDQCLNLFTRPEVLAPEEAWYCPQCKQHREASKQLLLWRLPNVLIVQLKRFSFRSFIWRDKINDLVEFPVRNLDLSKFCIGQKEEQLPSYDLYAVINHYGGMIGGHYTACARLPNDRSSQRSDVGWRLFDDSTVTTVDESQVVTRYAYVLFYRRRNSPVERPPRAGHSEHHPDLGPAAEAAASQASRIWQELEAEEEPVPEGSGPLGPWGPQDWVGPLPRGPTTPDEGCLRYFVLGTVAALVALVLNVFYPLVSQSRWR
Test: USP19 fluorescence polarisation (FP) assay, Ubiquitin-Lys-TAMRA substrate
Assay type: biochemical
Settings: average of at least two duplicate experiments
Method in brief: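 Fluorescence polarisation (excitation 530 nm, parallel and perpendicular emission at 575 nm) was recorded every 15 min for 90 min after adding the ubiquitin-Lys-TAMRA isopeptide (500 nM as dispensed). Beforehand, the full-length enzyme (2.5 nM as dispensed) sat 30 min at RT with compound diluted from 200 μM to 2 μM in HEPES pH 7.4 buffer with 150 mM NaCl, 5 mM DTT, 0.05% BSA and 0.05% CHAPS. Values normalised to uninhibited wells gave IC50s by non-linear fitting, each the mean of two or more duplicate runs.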

SMILES | IC50 [nM]
COc1ccccc1-c1cc(=O)n(C[C@]2(OC)CCN(C(=O)N3CC[C@@H](NC(C)C)C[C@H]3c3cc(F)ccc3F)CC23CCCC3)cn1 [Example 190, 3-(((S)-7-((2S,4R)-2-(2,5-Difluorophenyl)-4-(isopropylamino)piperidine-1-carbonyl)-10-methoxy-7-azaspiro[4.5]decan-10-yl)methyl)-6-(2-methoxyphenyl)pyrimidin-4(3H)-one] | < 10
CN[C@@H]1CCN(C(=O)N2CC[C@@H](Cn3cnc(-c4ccccc4C)cc3=O)C3(CCCC3)C2)[C@H](c2ccc(F)cc2F)C1 [Example 137, 3-(((R)-7-((2S,4R)-2-(2,4-Difluorophenyl)-4-(methylamino)piperidine-1-carbonyl)-7-azaspiro[4.5]decan-10-yl)methyl)-6-(o-tolyl)pyrimidin-4(3H)-one] | < 10
CN[C@@H]1CCN(C(=O)N2CC[C@@H](Cn3cnc(-c4ccccc4OC)cc3=O)C3(CCCC3)C2)[C@H](c2cc(F)cc(F)c2)C1 [Example 124, 3-(((R)-7-((2S,4R)-2-(3,5-Difluorophenyl)-4-(methylamino)piperidine-1-carbonyl)-7-azaspiro[4.5]decan-10-yl)methyl)-6-(2-methoxyphenyl)pyrimidin-4(3H)-one] | < 10
CCN[C@@H]1CCN(C(=O)N2CC[C@@H](Cn3cnc4ccc(F)cc4c3=O)C3(CCCC3)C2)[C@H](c2cc(F)ccc2F)C1 [Example 162, 3-(((R)-7-((2S,4R)-2-(2,5-Difluorophenyl)-4-(ethylamino)piperidine-1-carbonyl)-7-azaspiro[4.5]decan-10-yl)methyl)-6-fluoroquinazolin-4(3H)-one] | < 10
CCN[C@@H]1CCN(C(=O)N2CC[C@@H](Cn3ccc(-c4ccccc4)cc3=O)C3(CCCC3)C2)[C@H](c2cc(F)ccc2F)C1 [Example 180, 1-(((R)-7-((2S,4R)-2-(2,5-Difluorophenyl)-4-(ethylamino)piperidine-1-carbonyl)-7-azaspiro[4.5]decan-10-yl)methyl)-4-phenylpyridin-2(1H)-one] | < 10
O=C(N1CC[C@@H](Cn2cnc(-c3ccccc3)cc2=O)C2(CCCC2)C1)N1CC[C@@H](NC2CC(F)(F)C2)C[C@H]1c1ccccc1 [Example 135, 3-(((R)-7-((2S,4R)-4-((3,3-Difluorocyclobutyl)amino)-2-phenylpiperidine-1-carbonyl)-7-azaspiro[4.5]decan-10-yl)methyl)-6-phenylpyrimidin-4(3H)-one] | < 10
CN[C@@H]1CCN(C(=O)N2CC[C@@H](Cn3cnc(-c4ccccc4OC)cc3=O)C3(CCCC3)C2)[C@H](c2ccc(F)cc2F)C1 [Example 117, 3-(((R)-7-((2S,4R)-2-(2,4-Difluorophenyl)-4-(methylamino)piperidine-1-carbonyl)-7-azaspiro[4.5]decan-10-yl)methyl)-6-(2-methoxyphenyl)pyrimidin-4(3H)-one] | < 10
CN[C@@H]1CCN(C(=O)N2CCC(Cn3ccc(-c4ccccc4)cc3=O)CC2)[C@H](c2cc(F)ccc2F)C1 [Example 98, 1-((1-((2S,4R)-2-(2,5-Difluorophenyl)-4-(methylamino)piperidine-1-carbonyl)piperidin-4-yl)methyl)-4-phenylpyridin-2(1H)-one] | < 10
COC[C@H](CC(F)(F)F)C(=O)N1CCC(Cn2cnc(-c3ccccc3)cc2=O)C2(CCCC2)C1 (stereo partly drawn) [Example 7, 6-Phenyl-3-((7-((S)-4,4,4-trifluoro-2-(methoxymethyl)butanoyl)-7-azaspiro[4.5]decan-10-yl)methyl)pyrimidin-4(3H)-one] | 1000 to 20000
N[C@@H]1CCN(C(=O)N2CCC(Cn3ccc4ccncc4c3=O)C3(CCCC3)C2)[C@H](c2ccccc2)C1 (stereo partly drawn) [Example 33, 2-((7-((2S,4R)-4-Amino-2-phenylpiperidine-1-carbonyl)-7-azaspiro[4.5]decan-10-yl)methyl)-2,7-naphthyridin-1(2H)-one] | 10 to 100
N[C@@H]1CCN(C(=O)N2CCC(Cn3cnccc3=O)C3(CCCC3)C2)[C@H](c2ccccc2)C1 (stereo partly drawn) [Example 30, 3-((7-((2S,4R)-4-Amino-2-phenylpiperidine-1-carbonyl)-7-azaspiro[4.5]decan-10-yl)methyl) pyrimidin-4(3H)-one] | 100 to 1000
CN[C@@H]1CCN(C(=O)N2CC[C@@H](Cn3cnc4ccc(F)cc4c3=O)C3(CCCC3)C2)[C@H](c2cc(F)ccc2F)C1 [Example 125, 3-(((R)-7-((2S,4R)-2-(2,5-Difluorophenyl)-4-(methylamino)piperidine-1-carbonyl)-7-azaspiro[4.5]decan-10-yl)methyl)-6-fluoroquinazolin-4(3H)-one] | < 10
COC(=O)CN[C@@H]1CCN(C(=O)N2CC[C@@H](Cn3cnc(-c4ccccc4)cc3=O)C3(CCCC3)C2)[C@H](c2ccccc2)C1 [Example 105, Methyl ((2S,4R)-1-((R)-10-((6-oxo-4-phenylpyrimidin-1(6H)-yl)methyl)-7-azaspiro[4.5]decane-7-carbonyl)-2-phenylpiperidin-4-yl)glycinate] | < 10
O=C(N1CC[C@@H](Cn2ccc(Cl)cc2=O)C2(CCCC2)C1)N1CC[C@@H](NCC(F)F)C[C@H]1c1cc(F)ccc1F [Example 185, 4-Chloro-1-(((R)-7-((2S,4R)-4-((2,2-difluoroethyl)amino)-2-(2,5-difluorophenyl)piperidine-1-carbonyl)-7-azaspiro[4.5]decan-10-yl)methyl)pyridin-2(1H)-one] | 10 to 100
O=C(N1CCC(Cn2ccc(-c3ccccc3)cc2=O)CC1)N1CCNC[C@H]1c1ccccc1 [Example 6, (R)-4-Phenyl-1-((1-(2-phenylpiperazine-1-carbonyl)piperidin-4-yl)methyl)pyridin-2(1H)-one] | 100 to 1000
N[C@@H]1CCN(C(=O)N2CCC(Cn3ccc(-c4ccccc4)cc3=O)CC2)[C@H](c2ccccc2)C1 [Example 17, 1-((1-((2S,4R)-4-Amino-2-phenylpiperidine-1-carbonyl)piperidin-4-yl)methyl)-4-phenylpyridin-2(1H)-one] | 10 to 100
CN[C@@H]1CCN(C(=O)N2CC[C@@H](Cn3cnc4ccc(F)cc4c3=O)C3(CCCC3)C2)[C@H](c2cccc(F)c2F)C1 [Example 166, 3-(((R)-7-((2S,4R)-2-(2,3-Difluorophenyl)-4-(methylamino)piperidine-1-carbonyl)-7-azaspiro[4.5]decan-10-yl)methyl)-6-fluoroquinazolin-4(3H)-one] | < 10
CN[C@@H]1CCN(C(=O)N2CC[C@@H](Cn3cnc(-c4ccccc4OC)cc3=O)C3(CCCC3)C2)[C@H](c2cccc(F)c2F)C1 [Example 149, 3-(((R)-7-((2S,4R)-2-(2,3-Difluorophenyl)-4-(methylamino)piperidine-1-carbonyl)-7-azaspiro[4.5]decan-10-yl)methyl)-6-(2-methoxyphenyl)pyrimidin-4(3H)-one] | < 10
N[C@@H]1CCN(C(=O)N2CCC(F)(Cn3cnc(-c4ccccc4)cc3=O)C3(CCCC3)C2)[C@H](c2ccccc2)C1 (stereo partly drawn) [Example 57, 3-((7-((2S,4R)-4-Amino-2-phenylpiperidine-1-carbonyl)-10-fluoro-7-azaspiro[4.5]decan-10-yl)methyl)-6-phenylpyrimidin-4(3H)-one] | < 10
N[C@H]1C[C@@H](c2ccccc2)N(C(=O)N2CC[C@@H](Cn3cnc(-c4ccccc4)cc3=O)C3(CCCC3)C2)C1 [Example 70, 3-(((R)-7-((2S,4S)-4-Amino-2-phenylpyrrolidine-1-carbonyl)-7-azaspiro[4.5]decan-10-yl)methyl)-6-phenylpyrimidin-4(3H)-one] | < 10
N[C@@H]1CCN(C(=O)N2CC[C@@H](Cn3ccc(-c4ccccc4)cc3=O)C3(CCCC3)C2)[C@H](c2cc(F)cc(F)c2)C1 [Example 108, 1-(((R)-7-((2S,4R)-4-Amino-2-(3,5-difluorophenyl)piperidine-1-carbonyl)-7-azaspiro[4.5]decan-10-yl)methyl)-4-phenylpyridin-2(1H)-one] | < 10
